Active and inactive are the calls of the source.
Experiments:
Protein skinhead-1 = target: T1, Protein skinhead-1 (Caenorhabditis elegans, UniProt P34707); assay type: functional
T1 sequence (P34707 whole entry): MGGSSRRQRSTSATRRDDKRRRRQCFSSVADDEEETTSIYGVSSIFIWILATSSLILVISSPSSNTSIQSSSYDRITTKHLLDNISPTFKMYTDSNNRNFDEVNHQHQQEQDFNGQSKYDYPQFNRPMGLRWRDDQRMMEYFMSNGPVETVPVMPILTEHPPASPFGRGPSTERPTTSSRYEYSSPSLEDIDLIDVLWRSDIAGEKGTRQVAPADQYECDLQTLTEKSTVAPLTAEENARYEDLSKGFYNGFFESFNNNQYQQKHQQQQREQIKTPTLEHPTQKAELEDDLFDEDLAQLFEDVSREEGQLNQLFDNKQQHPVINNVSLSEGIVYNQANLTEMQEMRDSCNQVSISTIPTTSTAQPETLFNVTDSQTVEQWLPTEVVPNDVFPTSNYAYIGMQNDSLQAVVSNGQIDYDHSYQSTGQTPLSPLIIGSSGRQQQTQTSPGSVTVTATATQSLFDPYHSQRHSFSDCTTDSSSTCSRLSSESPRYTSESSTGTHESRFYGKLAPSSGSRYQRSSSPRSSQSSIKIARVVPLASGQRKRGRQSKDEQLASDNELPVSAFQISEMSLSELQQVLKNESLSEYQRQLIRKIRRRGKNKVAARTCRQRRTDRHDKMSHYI

Fatty acid synthase [1] = target: T2, Fatty acid synthase (Homo sapiens, UniProt P49327); test: FAS thioesterase domain inhibitors, dose response, biochemical, endpoint fluorescence intensity, uHTS hits (AID 624327); assay type: functional;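 also: fluorescence from hydrolysis of an O-methyl fluorescein acyl ester substrate by the enzyme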
T2 sequence (P49327 whole entry, the tested form may be a part): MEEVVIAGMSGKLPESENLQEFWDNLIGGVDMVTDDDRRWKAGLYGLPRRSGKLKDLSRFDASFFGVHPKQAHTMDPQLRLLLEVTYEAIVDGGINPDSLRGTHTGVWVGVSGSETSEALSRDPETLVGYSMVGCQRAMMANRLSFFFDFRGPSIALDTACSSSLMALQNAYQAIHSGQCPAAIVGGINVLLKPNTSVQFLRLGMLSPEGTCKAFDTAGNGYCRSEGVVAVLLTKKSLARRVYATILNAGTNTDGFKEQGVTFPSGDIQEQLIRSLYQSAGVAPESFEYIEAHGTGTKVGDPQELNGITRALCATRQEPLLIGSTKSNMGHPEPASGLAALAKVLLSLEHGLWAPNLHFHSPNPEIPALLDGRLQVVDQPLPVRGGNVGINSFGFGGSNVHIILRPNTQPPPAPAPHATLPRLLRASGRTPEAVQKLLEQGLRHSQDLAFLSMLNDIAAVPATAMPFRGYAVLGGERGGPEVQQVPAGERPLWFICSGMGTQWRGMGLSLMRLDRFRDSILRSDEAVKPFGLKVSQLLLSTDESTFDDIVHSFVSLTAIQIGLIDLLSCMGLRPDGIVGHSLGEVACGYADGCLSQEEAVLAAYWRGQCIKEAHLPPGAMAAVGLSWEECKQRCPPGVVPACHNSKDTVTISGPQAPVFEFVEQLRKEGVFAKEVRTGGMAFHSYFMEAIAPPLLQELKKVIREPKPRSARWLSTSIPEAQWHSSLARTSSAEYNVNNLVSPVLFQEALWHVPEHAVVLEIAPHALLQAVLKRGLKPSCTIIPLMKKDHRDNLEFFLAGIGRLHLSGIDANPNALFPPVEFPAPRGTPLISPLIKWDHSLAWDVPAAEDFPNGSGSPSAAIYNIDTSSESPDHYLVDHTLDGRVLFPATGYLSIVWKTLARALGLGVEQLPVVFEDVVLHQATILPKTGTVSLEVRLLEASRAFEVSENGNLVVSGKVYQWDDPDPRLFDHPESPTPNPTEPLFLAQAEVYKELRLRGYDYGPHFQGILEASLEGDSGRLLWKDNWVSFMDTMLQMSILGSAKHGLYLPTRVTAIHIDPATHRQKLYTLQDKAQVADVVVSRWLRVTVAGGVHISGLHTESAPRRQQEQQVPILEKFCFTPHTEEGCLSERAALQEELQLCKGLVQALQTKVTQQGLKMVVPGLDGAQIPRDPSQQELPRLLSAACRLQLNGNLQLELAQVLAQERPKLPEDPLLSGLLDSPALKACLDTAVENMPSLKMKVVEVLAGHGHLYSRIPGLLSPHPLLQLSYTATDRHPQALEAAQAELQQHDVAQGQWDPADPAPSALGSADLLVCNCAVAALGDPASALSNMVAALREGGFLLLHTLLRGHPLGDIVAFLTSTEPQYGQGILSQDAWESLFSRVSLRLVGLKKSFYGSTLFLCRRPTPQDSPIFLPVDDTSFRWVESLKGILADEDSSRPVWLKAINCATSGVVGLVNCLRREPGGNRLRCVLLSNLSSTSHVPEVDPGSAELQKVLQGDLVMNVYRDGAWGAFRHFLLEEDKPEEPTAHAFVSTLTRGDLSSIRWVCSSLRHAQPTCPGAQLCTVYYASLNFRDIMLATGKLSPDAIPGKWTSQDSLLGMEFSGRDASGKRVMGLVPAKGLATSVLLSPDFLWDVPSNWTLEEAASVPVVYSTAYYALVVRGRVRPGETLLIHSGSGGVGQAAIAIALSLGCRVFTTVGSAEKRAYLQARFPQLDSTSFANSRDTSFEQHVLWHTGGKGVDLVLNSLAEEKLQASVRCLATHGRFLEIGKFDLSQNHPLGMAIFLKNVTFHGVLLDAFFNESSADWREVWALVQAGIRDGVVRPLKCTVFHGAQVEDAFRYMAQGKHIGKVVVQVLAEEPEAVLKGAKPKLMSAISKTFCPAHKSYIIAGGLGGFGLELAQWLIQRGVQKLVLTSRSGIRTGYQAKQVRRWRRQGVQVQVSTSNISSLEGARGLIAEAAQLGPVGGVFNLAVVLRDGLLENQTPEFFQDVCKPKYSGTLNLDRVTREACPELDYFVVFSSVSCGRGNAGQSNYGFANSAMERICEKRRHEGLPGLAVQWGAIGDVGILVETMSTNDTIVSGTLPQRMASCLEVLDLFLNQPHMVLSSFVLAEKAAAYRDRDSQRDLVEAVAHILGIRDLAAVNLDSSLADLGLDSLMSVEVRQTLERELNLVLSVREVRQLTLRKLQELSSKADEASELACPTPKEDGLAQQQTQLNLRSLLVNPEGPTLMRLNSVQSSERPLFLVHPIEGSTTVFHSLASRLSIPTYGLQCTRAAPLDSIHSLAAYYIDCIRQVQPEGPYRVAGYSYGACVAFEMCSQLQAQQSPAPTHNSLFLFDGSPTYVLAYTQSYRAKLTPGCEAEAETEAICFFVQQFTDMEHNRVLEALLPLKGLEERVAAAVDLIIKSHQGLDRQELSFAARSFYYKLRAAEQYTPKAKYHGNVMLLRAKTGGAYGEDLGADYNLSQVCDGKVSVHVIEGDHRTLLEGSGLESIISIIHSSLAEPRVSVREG

Fatty acid synthase [2] = target: T2, Fatty acid synthase; test: FAS thioesterase domain inhibitors, dose response, biochemical, kinetic fluorescence intensity (AID 624326); assay type: functional;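 also: rate of fluorescence rise from hydrolysis of a fluorogenic O-methyl fluorescein ester substrate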
Nonstructural protein 1 = Nonstructural protein 1 (Influenza A virus, UniProt Q194T2); assay type: functional, Influenza A virus (A/California/07/2009(H1N1))
Nonstructural protein 1, sequence (Q194T2 whole entry): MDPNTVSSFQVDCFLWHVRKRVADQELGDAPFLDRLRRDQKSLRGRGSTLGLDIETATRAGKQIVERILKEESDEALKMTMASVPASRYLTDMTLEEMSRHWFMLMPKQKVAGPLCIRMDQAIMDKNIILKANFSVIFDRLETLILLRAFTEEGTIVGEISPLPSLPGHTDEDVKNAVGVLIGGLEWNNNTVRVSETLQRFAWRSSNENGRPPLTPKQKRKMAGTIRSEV

[3] = inhibitors of firefly luciferase expression or activity, dose response, H4 neuroglioma cells, luminescence (AID 1990); assay type: functional, cell-based
[4] = Luminescence Cell-Based Dose Response HTS to Identify Inhibitors of 5'UTR Stem-Loop Driven Prion Protein mRNA Translation in H4 Neuroglioblastoma Cells. [Related pubchem assays: 1827 (Project Summary), 1813 (Primary HTS)]; assay type: functional
[5] = inhibitors of SNCA 5'UTR-driven reporter translation, confirmation, H4 neuroglioma cells, luminescence (AID 1988); assay type: functional, cell-based
Vero = test: cells; assay type: functional; details: Chlorocebus sabaeus
[6] = microbe, parasite or virus in culture; assay type: functional; details: Mycobacterium tuberculosis
[7] = Shn3 3'UTR reporter inhibitors, dose response, cell-based, Clone20 osteoblasts, firefly luciferase, cherry-picked (AID 624132); assay type: functional;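 also: firefly luciferase luminescence from reporter carrying the Shn3 3'UTR in osteoblasts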
[8] = HepG2 cell cytotoxicity, dose response, cytotoxicity control for Shn3 inhibitor project, CellTiter-Glo, cherry-picked (AID 624134); assay type: functional, cell-based
[9] = control 3'UTR Renilla luciferase suppression, dose response, counter-screen for Shn3 inhibitor project, cell-based, Clone20-Shn3RL, cherry-picked (AID 624133); assay type: functional
[10] = HEp-2 cell cytotoxicity, dose response, cytotoxicity control for RSV inhibitor project, HTS (AID 2410); assay type: functional; details: human respiratory syncytial virus

## Clc1ccc(-c2cn3c(n2)-c2ccccc2C3)cc1Cl
Protein skinhead-1
  IC50: > 100 µM (inactive)

## Cc1ccc(-c2csc(-c3ccncc3)n2)cc1
Protein skinhead-1
  IC50: 65.2 µM (inactive)

## O=C(NC1CC1)c1cc(-c2ccc(Br)cc2)nc2ccccc12
Protein skinhead-1
  IC50: > 100 µM (inactive)

## O=C1CC(c2cccc([N+](=O)[O-])c2)c2c(ccc3ccccc23)N1 (centres undefined)
Fatty acid synthase [1]
  IC50: 52.2 µM (inactive)
Fatty acid synthase [2]
  IC50: 56.4 µM (inactive)

## Cc1cc(C)c2cc(C#N)c(N3CCCC3)nc2c1
Protein skinhead-1
  IC50: > 100 µM (inactive)

## CCN(Cc1ccccc1)c1ccc(N=Nc2nn(C)c(C)c2[N+](=O)[O-])cc1
Nonstructural protein 1
  IC50: 9.29 µM (active)
Fatty acid synthase [1]
  IC50: 13.9 µM (active)
Fatty acid synthase [2]
  IC50: 7.95 µM (active)

## N#Cc1cc(C(=O)c2ccccc2OCC(=O)Nc2ccccc2Cl)cn(C2CCCCC2)c1=O
[3]
  EC50: 22 µM (active)
[4]
  EC50: > 120 µM (not active)
[5]
  EC50: > 120 µM (not active)

## COc1ccccc1N1CCN(CC(O)c2c(C)[nH]c3ccccc23)CC1 (centres undefined)
Vero
  CC50: > 25 µM (active)

## Cc1c(NC(=O)CCC2CCCCC2)cc(C(=O)N2CCOCC2)cc1[N+](=O)[O-]
[3]
  EC50: > 120 µM (not active)
[4]
  EC50: > 120 µM (not active)
[5]
  EC50: > 120 µM (not active)

## COC(=O)c1c(NC(=O)CCl)sc(C(=O)N2CCOCC2)c1C
[6]
  CC50: 16.4 µM (active)

## Cc1ccc(C)c(S(=O)(=O)N2CCN(C(=O)C3CCN(c4ncnc5sc(C)c(C)c45)CC3)CC2)c1
[7]
  AC50: 2.82 µM (active)
[8]
  AC50: > 70 µM (inactive)
[9]
  AC50: 2.29 µM (active)

## Cc1cc2c(=O)oc(-c3ccccc3Br)nc2s1
Fatty acid synthase [1]
  IC50: 7.57 µM (active)
Fatty acid synthase [2]
  IC50: 8.01 µM (active)

## CCN(CC)S(=O)(=O)c1ccc(C2=NOC3(C2)N(C)c2ccccc2C3(C)C)cc1 (centres undefined)
[10]
  CC50: > 50 µM (active)
[3]
  EC50: > 120 µM (not active)
[4]
  EC50: 29 µM (active)
[5]
  EC50: 0.516 µM (active)

## C=CCn1c(SCc2cc(=O)n3ccsc3n2)nc2sc(C)c(C)c2c1=O
[3]
  EC50: 15.3 µM (active)
[4]
  EC50: > 120 µM (not active)
[5]
  EC50: > 120 µM (not active)

From ChEMBL document CHEMBL1201862, “PubChem BioAssay data set” (2004)
